System: moderate-to-severe chronic spontaneous urticaria (CSU)
Experiment: Phase 2 CSU study: hives severity score over 7 days (HSS7)
Type: in vivo, human
Set-up: key to HSS7 Change from baseline, Median / HSS7, Median / HSS7, Max / HSS7 Change from baseline, Q1 / HSS7 Change from baseline, Q3 / HSS7 Change from baseline, Max: 7-day sum of daily hive scores, each 0 = none to 3 = >50 hives
From the text: The study comprises a 12 week, randomized, double-blind, placebo-controlled, multi-center, dose-ranging efficacy and safety phase, followed by a 40 week open label extension (OLE) phase (see FIG. 1).
The study consists of three phases and an optional OLE phase.
The UAS is a validated PRO measure. The daily UAS is the sum of the daily Hive Severity Score (HSS, ranging from 0=None to 3=more than 50 hives) and the daily Itch Severity Score (ISS, ranging from 0=None to 3=intense), the 2 key urticaria signs and symptoms which are wheals and itch. The daily UAS scores range from 0 to 6 point/day. Daily UAS scores are summed over 7-day period to create the UAS7, ranging from 0 to 42, and are composed of the HSS7 and ISS7 components. […] Patients were to complete the UAS using the e-diary. The e-diary was to be used once daily on the same time of each day recording of participant's answers to the urticaria activity score over 7 days (UAS7) questionnaire. For participants who entered the OLE phase, their answers to the UAS7 questionnaire were also to be collected from Week 20 to Week24 and from Week 48 to Week 52.
The following secondary endpoints were to be analyzed using the same approach as for the primary endpoint: • Change from baseline in UAS7 at Week 4 • Change from baseline in UAS7 at Week 12 (for US and US reference countries) • Change from baseline in ISS7 at Week 12 (except US and US reference countries) • Change from baseline in HSS7 at Week 12

[1] = 400 mg QPM, Week 10, ITT Population
[2] = 400 mg QPM, Week 11, ITT Population
[3] = 400 mg QPM, Week 12, ITT population
[4] = 400 mg QPM, Week 12, Omalizumab-Naïve Population
[5] = 400 mg TID, Omalizumab-Naïve Population, last block under Week 12, double-blind period, WOCF imputation
[6] = 400 mg TID, Week 1, ITT Population
[7] = 400 mg TID, Week 1, Omalizumab-Naïve Population
[8] = 400 mg TID, Week 2, ITT Population
[9] = 400 mg TID, Week 2, Omalizumab-Naïve Population
[10] = 400 mg TID, Week 3, ITT Population
[11] = 400 mg TID, Week 3, Omalizumab-Naïve Population
[12] = 400 mg TID, Week 4, ITT population
[13] = 400 mg TID, Week 4, Omalizumab-Naïve Population
[14] = 400 mg TID, Week 5, ITT Population
[15] = 400 mg TID, Week 5, Omalizumab-Naïve Population
[16] = 400 mg TID, Week 6, ITT Population
[17] = 400 mg TID, Week 6, Omalizumab-Naïve Population
[18] = 400 mg TID, Week 7, ITT Population
[19] = 400 mg TID, Week 7, Omalizumab-Naïve Population
[20] = 400 mg TID, Week 8, ITT population
[21] = 400 mg TID, Week 8, Omalizumab-Naïve Population

## CC(C)(C=C(C#N)C(=O)N1CCC[C@@H](n2nc(-c3ccc(Oc4ccccc4)cc3F)c3c(N)ncnc32)C1)N1CCN(C2COC2)CC1 [rilzabrutinib, (R)-2-[3-[4-amino-3-(2-fluoro-4-phenoxy-phenyl)pyrazolo[3,4-d]pyrimidin-1-yl]piperidine-1-carbonyl]-4-methyl-4-[4-(oxetan-3-yl)piperazin-1-yl]pent-2-enenitrile]
[1]
  HSS7 % Change difference for rilzabrutinib vs.placebo LS Mean (95% CI): −6.70 %
  HSS7 % Change from baseline LS Mean (SE): −34.70 (6.79) %
  HSS7 Change difference for rilzabrutinib vs.placebo LS Mean (95% CI): −0.56 (−3.19, 2.07)
  HSS7 Change from baseline LS Mean (SE): −5.16 (0.98)
  HSS7 Postbaseline Mean (SD): 9.82 (5.85)
400 mg QPM, Week 10, Omalizumab-Naïve Population
  HSS7 Postbaseline Mean (SD): 9.88 (5.93)
400 mg QPM, Week 10, Omalizumab-Naïve Population with Outlier Removed from Analysis
  HSS7 Postbaseline Mean (SD): 9.88 (5.93)
[2]
  HSS7 % Change difference for rilzabrutinib vs.placebo LS Mean (95% CI): −8.01 %
  HSS7 % Change from baseline LS Mean (SE): −34.56 (7.07) %
  HSS7 Change difference for rilzabrutinib vs.placebo LS Mean (95% CI): −0.43 (−3.08, 2.22)
  HSS7 Change from baseline LS Mean (SE): −4.97 (0.99)
  HSS7 Postbaseline Mean (SD): 10.15 (6.09)
400 mg QPM, Week 11, Omalizumab-Naïve Population
  HSS7 Postbaseline Mean (SD): 10.18 (6.18)
400 mg QPM, Week 11, Omalizumab-Naïve Population with Outlier Removed from Analysis
  HSS7 Postbaseline Mean (SD): 10.18 (6.18)
[3]
  HSS7 % Change difference for rilzabrutinib vs.placebo LS Mean (95% CI): −5.74 %
  HSS7 % Change from baseline LS Mean (SE): −33.48 (7.28) %
  HSS7 Change difference for rilzabrutinib vs.placebo LS Mean (95% CI): 0.14 (−2.62, 2.91)
  HSS7 Change from baseline LS Mean (SE): −4.75 (1.03)
[4]
  HSS7 Change difference for rilzabrutinib vs.placebo LS Mean (95% CI): −0.09 (−2.92, 2.75)
  HSS7 Change from baseline LS Mean (SE): −4.49 (1.04)
400 mg TID, ITT population
  median reduction in HSS7 at Week 12: −8.31 points
[5]
  HSS7, Max: 16.0
  HSS7, Min: 2.0
  HSS7 Change from baseline, Max: 0.0
  HSS7 Change from baseline, Mean (SD): −5.20 (3.11)
  HSS7 Change from baseline, Median: −6.00
  HSS7 Change from baseline, Min: −8.0
  HSS7 Change from baseline, Q1: −7.00
  HSS7 Change from baseline, Q3: −5.00
  HSS7 Percent change from baseline, Max: 0.0%
  HSS7 Percent change from baseline, Mean (SD): −38.89 (26.61) percent
  HSS7 Percent change from baseline, Median: −44.44%
  HSS7 Percent change from baseline, Min: −71.4%
  HSS7 Percent change from baseline, Q1: −50.00%
  HSS7 Percent change from baseline, Q3: −28.57%
[6]
  HSS7 % Change difference for rilzabrutinib vs.placebo LS Mean (95% CI): −30.65 %
  HSS7 % Change from baseline LS Mean (SE): −39.34 (5.49) %
  HSS7 Change from baseline LS Mean (SE): −6.09 (0.74)
  HSS7 Postbaseline Mean (SD): 7.76 (4.83)
[7]
  HSS7 % Change difference for rilzabrutinib vs.placebo LS Mean (95% CI): −27.41 %
  HSS7 % Change from baseline LS Mean (SE): −34.85 (6.00) %
  HSS7 Change from baseline LS Mean (SE): −5.32 (0.79)
  HSS7 Postbaseline Mean (SD): 8.26 (4.91)
400 mg TID, Week 1, Omalizumab-Naïve Population with Outlier Removed from Analysis
  HSS7 Postbaseline Mean (SD): 8.50 (4.76)
[8]
  HSS7 % Change difference for rilzabrutinib vs.placebo LS Mean (95% CI): −30.93 %
  HSS7 % Change from baseline LS Mean (SE): −47.49 (5.64) %
  HSS7 Change difference for rilzabrutinib vs.placebo LS Mean (95% CI): −4.24 (−6.33, −2.15)
  HSS7 Change from baseline LS Mean (SE): −7.16 (0.77)
  HSS7 Postbaseline Mean (SD): 6.61 (5.06)
[9]
  HSS7 % Change difference for rilzabrutinib vs.placebo LS Mean (95% CI): −27.36 %
  HSS7 % Change from baseline LS Mean (SE): −42.63 (6.08) %
  HSS7 Postbaseline Mean (SD): 7.25 (5.05)
400 mg TID, Week 2, Omalizumab-Naïve Population with Outlier Removed from Analysis
  HSS7 Postbaseline Mean (SD): 7.44 (5.01)
[10]
  HSS7 % Change difference for rilzabrutinib vs.placebo LS Mean (95% CI): −29.56 %
  HSS7 % Change from baseline LS Mean (SE): −48.71 (5.82) %
  HSS7 Change difference for rilzabrutinib vs.placebo LS Mean (95% CI): −3.79 (−5.97, −1.61)
  HSS7 Change from baseline LS Mean (SE): −7.29 (0.81)
  HSS7 Postbaseline Mean (SD): 6.49 (4.72)
[11]
  HSS7 % Change difference for rilzabrutinib vs.placebo LS Mean (95% CI): −27.37 %
  HSS7 % Change from baseline LS Mean (SE): −45.07 (6.36) %
  HSS7 Postbaseline Mean (SD): 7.03 (4.82)
400 mg TID, Week 3, Omalizumab-Naïve Population with Outlier Removed from Analysis
  HSS7 Postbaseline Mean (SD): 7.03 (4.89)
[12]
  HSS7 % Change difference for rilzabrutinib vs.placebo LS Mean (95% CI): −29.20 %
  HSS7 % Change from baseline LS Mean (SE): −47.90 (5.95) %
  HSS7 Change difference for rilzabrutinib vs.placebo LS Mean (95% CI): −3.53 (−5.74, −1.31)
  HSS7 Change from baseline LS Mean (SE): −6.98 (0.82)
  HSS7 Postbaseline Mean (SD): 6.39 (4.92)
[13]
  HSS7 % Change difference for rilzabrutinib vs.placebo LS Mean (95% CI): −28.82 %
  HSS7 % Change from baseline LS Mean (SE): −44.69 (6.50) %
  HSS7 Postbaseline Mean (SD): 6.85 (4.96)
400 mg TID, Week 4, Omalizumab-Naïve Population with Outlier Removed from Analysis
  HSS7 Postbaseline Mean (SD): 6.85 (4.96)
[14]
  HSS7 % Change difference for rilzabrutinib vs.placebo LS Mean (95% CI): −23.13 %
  HSS7 % Change from baseline LS Mean (SE): −52.29 (5.80) %
  HSS7 Change difference for rilzabrutinib vs.placebo LS Mean (95% CI): −3.09 (−5.36, −0.81)
  HSS7 Change from baseline LS Mean (SE): −7.73 (0.84)
  HSS7 Postbaseline Mean (SD): 6.02 (5.11)
[15]
  HSS7 % Change difference for rilzabrutinib vs.placebo LS Mean (95% CI): −18.86 %
  HSS7 % Change from baseline LS Mean (SE): −49.42 (6.23) %
  HSS7 Postbaseline Mean (SD): 6.49 (5.14)
400 mg TID, Week 5, Omalizumab-Naïve Population with Outlier Removed from Analysis
  HSS7 Postbaseline Mean (SD): 6.49 (5.14)
[16]
  HSS7 % Change difference for rilzabrutinib vs.placebo LS Mean (95% CI): −28.20 %
  HSS7 % Change from baseline LS Mean (SE): −52.27 (6.61) %
  HSS7 Change difference for rilzabrutinib vs.placebo LS Mean (95% CI): −3.48 (−5.94, −1.02)
  HSS7 Change from baseline LS Mean (SE): −7.75 (0.91)
  HSS7 Postbaseline Mean (SD): 6.14 (5.55)
[17]
  HSS7 % Change difference for rilzabrutinib vs.placebo LS Mean (95% CI): −24.11 %
  HSS7 % Change from baseline LS Mean (SE): −48.15 (7.17) %
  HSS7 Postbaseline Mean (SD): 6.78 (5.55)
400 mg TID, Week 6, Omalizumab-Naïve Population with Outlier Removed from Analysis
  HSS7 Postbaseline Mean (SD): 6.78 (5.55)
[18]
  HSS7 % Change difference for rilzabrutinib vs.placebo LS Mean (95% CI): −27.16 %
  HSS7 % Change from baseline LS Mean (SE): −51.12 (6.01) %
  HSS7 Change difference for rilzabrutinib vs.placebo LS Mean (95% CI): −3.58 (−5.87, −1.29)
  HSS7 Change from baseline LS Mean (SE): −7.66 (0.86)
  HSS7 Postbaseline Mean (SD): 6.18 (4.44)
[19]
  HSS7 % Change difference for rilzabrutinib vs.placebo LS Mean (95% CI): −24.63 %
  HSS7 Postbaseline Mean (SD): 6.40 (4.54)
400 mg TID, Week 7, Omalizumab-Naïve Population with Outlier Removed from Analysis
  HSS7 Postbaseline Mean (SD): 6.40 (4.54)
[20]
  HSS7 % Change difference for rilzabrutinib vs.placebo LS Mean (95% CI): −25.27 %
  HSS7 % Change from baseline LS Mean (SE): −54.34 (6.35) %
  HSS7 Change difference for rilzabrutinib vs.placebo LS Mean (95% CI): −3.06 (−5.54, −0.58)
  HSS7 Change from baseline LS Mean (SE): −7.81 (0.92)
  HSS7 Postbaseline Mean (SD): 5.60 (4.81)
[21]
  HSS7 % Change difference for rilzabrutinib vs.placebo LS Mean (95% CI): −22.36 %
  HSS7 % Change from baseline LS Mean (SE): −50.37 (7.07) %

— US20260256792A1, “TREATMENT OF CHRONIC SPONTANEOUS URTICARIA BY ADMINISTERING (R)-2-[3-[4-AMINO-3-(2-FLUORO-4-PHENOXY-PHENYL)PYRAZOLO[3,4-D]PYRIMIDIN-1-YL]PIPERIDINE-1-CARBONYL]-4-METHYL-4-[4-(OXETAN-3-YL)PIPERAZIN-1-YL]PENT-2-ENENITRILE” (priority 2023, published 2026)
